Experimental data taken from patent US8722713B2, “Synergistic antimicrobial composition of 1,2-benzisothiazolin-3-one and tris(hydroxymethyl)nitromethane” (Dow Global Technologies LLC, priority 2010, dated 2014).

What was measured:
[1] = test system: oil field isolated anaerobic consortium, mainly SRB; test: Biocidal efficacy (MBC) against anaerobic bacteria in contaminated salt solution; type: cell-based; conditions: 40° C., 24 hour, 10^6 to 10^7 CFU/mL
Method: Inside an anaerobic chamber (Bactron anaerobic chamber), a deaerated sterile salt solution (3.1183 g of NaCl, 1.3082 mg of NaHCO3, 47.70 mg of KCl, 72.00 mg of CaCl2, 54.49 mg of MgSO4, 172.28 mg of Na2SO4, 43.92 mg of Na2CO3 in 1 L water) was contaminated with an oil field isolated anaerobic consortium, mainly SRB, at final bacterial concentrations of 10^6 to 10^7 CFU/mL. The aliquots of this contaminated water were then treated with BIT, Tris Nitro, or the BIT/Tris Nitro combinations at different active concentration levels. After the mixtures were incubated at 40° C. for 24 hour, the biocidal efficacy was determined by minimum tested biocide concentration for bacteria kill in the aliquots (MBC). Table 1 summarizes the efficacy of each biocide and their blends, and the Synergy Index* of each combination.

[2] = test system: Psedomonas aeruginosa ATCC 10145 and Staphylococcus aureus ATCC 6538; test: Biocidal efficacy (MBC, complete kill) against aerobic bacteria in contaminated NaCl solution; type: cell-based; conditions: 37° C., 24 hour, ~10^6 CFU/ml
Method: A sterile NaCl solution (0.85%) was contaminated with Psedomonas aeruginosa ATCC 10145 and Staphylococcus aureus ATCC 6538 at final bacterial concentration of ˜10^6 CFU/ml. The aliquots of this contaminated water were then treated with BIT, Tris Nitro, or the BIT/Tris Nitro combination at different active concentration levels. […] Table 2 summarizes the efficacy of each biocide and their blends, and the Synergy Index of each combination.

| Compound | MBC (active ppm) Tris Nitro ([1]; concentration of Tris Nitro at minimum tested biocide concentration for bacteria kill) | Dosage required for complete kill (active ppm) Tris Nitro ([2]; concentration of Tris Nitro at MBC) | MBC (active ppm) BIT ([1]; concentration of BIT at minimum tested biocide concentration for bacteria kill) | Dosage required for complete kill (active ppm) BIT ([2]; concentration of BIT at MBC) |
| --- | --- | --- | --- | --- |
| O=[N+]([O-])C(CO)(CO)CO [0:1, tris(hydroxymethyl)nitromethane] | >100 active ppm | 25.7 active ppm |  |  |
| O=c1[nH]sc2ccccc12 [1:0, 1,2-benzisothiazolin-3-one] |  |  | 17.3 active ppm | >25 active ppm |
